Laboratory results taken from patent publication US10647690B2, “2,3-epoxy succinyl derivative, preparation method and use thereof” (Institute of Pharmacology and Toxicology Academy of …, priority 2016, dated 2020).
pIC50: −log10 of the molar value. Read-outs that look alike come from different tables or passages of the source.

Molecular target: T1, Cathepsin S (Homo sapiens, UniProt P25774)
T1 construct: purchased Biovision K149-100
Assay: IC50 determination against Cathepsin S (Biovision kit K149-100)
Assay type: biochemical
Conditions: CTSS; for pIC50: average of Exp-1 and Exp-2, read-out: Ave of IC50
Experimental: 2. Method for determining IC50 of compounds against cathepsin:
IC50 of compounds against Cathepsin S was determined by using Cathepsin S Inhibitor Screening Kit (Product No. K149-100) from Biovision Company.
2.1.1.4 Preparation of Cathepsin S solution: Cathepsin S enzyme (46 μl) was added to Cathepsin S buffer (2254 μl), and mixed well, to prepare Cathepsin S enzyme solution with a volume of 2.3 ml, which was placed on ice for further use.
2.1.2 Preparation of compound solutions: 30 mM and 10 mM compound stock solutions, and control compounds were gradiently diluted in DMSO at a ratio of 1:3, wherein the maximum dilution fold was 19683; the gradiently diluted compound solution (3 μl) was added to Cathepsin K, B, L, and S buffer (27 μl), respectively, and mixed well, wherein the control compounds (FF-FMK, F-F-FMK, FF-FMK and Z-FF-FMK) were at the concentrations of 66.67, 22.22, 7.41, 2.47, 0.82, 0.27, 0.091, 0.03, 0.01, 0.0034 and 0 μM, respectively, the test compounds were at the concentrations of 1000, 333.3, 111.1, 37, 12.3, 4.1, 1.4, 0.46, 0.15, 0.05 and 0 μM, respectively, and the final concentration of DMSO was 10%.
2.1.3.4 Cathepsin S: Cathepsin S substrate (90 μl) was added to Cathepsin S buffer (1710 μl), and mixed well, to prepare Cathepsin S substrate solution with a volume of 1.8 ml, which was placed on ice for further use.
Method for screening cathepsin inhibitors: the cathepsin solution (prepared in Item 2.1.1) was added to a 384-well plate (ProxiPlate-384 Plus, Perkinelmer) at 10 μl/well, and centrifuged at 1000 rpm for Imin; the compound solution (prepared in Item 2.1.2) was then added at 2 μl/well, and every concentration was repeated in two wells; the final concentrations of the test compounds were 100, 33.3, 11.1, 3.7, 1.23, 0.41, 0.14, 0.046, 0.015, 0.005 and 0 μM, respectively, wherein the final concentration of DMSO was 1%; after centrifugation at 1000 rpm for 1 min, the plate was put in a 25° C. incubator for 15 min; the cathepsin substrate solution was then added at 8 µl/well, and centrifuged at 1000 rpm for 1 min; and finally, the fluorescence signal was read in Enspire, wherein the exciting light was at a wavelength of 400 nm, the emitting light was at a wavelength of 505 nm, and continuous reading was performed at 37° C. for 120 min.
Data analysis: the slope (S) for all the samples was calculated by ΔRFU(RFU2−RFU1) and time ΔT(T2−T1), including negative control (Enzyme Control, EC) and positive control (Inhibitor Control, IC: 10 μM (FF-FMK, F-F-FMK, FF-FMK and Z-FF-FMK), and the calculation formula was as followed: Relative inhibition rate %=(SEC−SS)/(SEC−SIC)*100. The IC50 for each compound was obtained by means of fitting by software GraphPad Prism 5.0.

[1] = Exp-1, read-out: IC50 (nM) Exp-1
[2] = Exp-2, read-out: IC50 (nM) Exp-2

T1 sequence (P25774 115-331): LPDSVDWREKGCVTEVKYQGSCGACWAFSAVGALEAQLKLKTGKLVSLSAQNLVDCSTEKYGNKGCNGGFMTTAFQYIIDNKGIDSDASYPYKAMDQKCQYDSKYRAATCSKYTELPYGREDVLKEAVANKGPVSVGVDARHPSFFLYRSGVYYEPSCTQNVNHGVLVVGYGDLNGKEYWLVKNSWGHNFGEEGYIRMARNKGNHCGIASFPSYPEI

Compound | IC50 [1] | IC50 [2] | pIC50
CCCCCCNC(=O)[C@H](CCSC)NC(=O)[C@H]1O[C@@H]1C(=O)OCC [Compound 5, (2s, 3s)-2-ethoxycarbonyl-3-[2-[(s)-4-methylthio-1-carbonyl-1-(hexylamino)butane]formylamino]epoxysuccinic acid] | 4080 nM | 4140 nM | 5.39
CCOC(=O)[C@H]1O[C@@H]1C(=O)N[C@@H](CCSC)C(=O)NCCCc1ccccc1 [Compound 8, (2s, 3s)-2-ethoxycarbonyl-3-[2-[(s)-4-methylthio-1-carbonyl-1-(3-phenylpropylamino)butane]formylamino]epoxysuccinic acid] | 10600 nM | 9450 nM | 5.00
CCOC(=O)[C@H]1O[C@@H]1C(=O)N[C@@H](CCSC)C(=O)N1CCC(c2ccccc2)CC1 [Compound 13, (2s, 3s)-2-ethoxycarbonyl-3-[2-[(s)-4-methylthio-1-carbonyl-1-(phenylpiperidinyl)butane]formylamino]epoxysuccinic acid] | 1900 nM | 957 nM | 5.84
CCOC(=O)[C@H]1O[C@@H]1C(=O)N[C@@H](CCSC)C(=O)NCCc1cccc(F)c1 [Compound 34, (2s, 3s)-2-ethoxycarbonyl-3-[2-[(s)-4-methylthio-1-carbonyl-1-(3-fluorophenylethylamino)butane]formylamino]epoxysuccinic acid] | 1600 nM | 1660 nM | 5.79
CCOC(=O)[C@H]1O[C@@H]1C(=O)N[C@@H](CCSC)C(=O)NC(CC)CC [Compound 39, (2s, 3s)-2-ethoxycarbonyl-3-[2-[(s)-4-methylthio-1-carbonyl-1-(1-ethylpropylamino)butane]formylamino]epoxysuccinic acid] | 5110 nM | 8750 nM | 5.16
CCOC(=O)[C@H]1O[C@@H]1C(=O)N[C@@H](CCSC)C(=O)NCCCCc1ccccc1 [Compound 40, (2s, 3s)-2-ethoxycarbonyl-3-[2-[(s)-4-methylthio-1-carbonyl-1-(4-phenylbutylamino)butane]formylamino]epoxysuccinic acid] | 834 nM | 1510 nM | 5.93
CCOC(=O)[C@H]1O[C@@H]1C(=O)N[C@@H](CC(C)C)C(=O)NCCC(C)C [zxy-37, E64d, reference compound] | 753 nM | 571 nM | 6.18
